# According to paper PMC5218480 (PLoS ONE, 2017):
# Tested on: MV-4-11 cells
# Assay: Gene expression microarray analysis (Affymetrix PrimeView) and GSEA
# Format: cell-based, human
# Design: RFU PODN (11730768_x_at) / Fold change /veh PODN (11730768_x_at) / RFU LINC00158 (11744669_a_at) / Fold change /veh LINC00158 (11744669_a_at) / RFU DUSP10 (11751237_a_at) / Fold change /veh DUSP10 (11751237_a_at) / RFU ID3 (11757404_x_at) / Fold change /veh ID3 (11757404_x_at) / RFU PLEKHG5 (11737974_s_at) / Fold change /veh PLEKHG5 (11737974_s_at) / RFU LRRC4B (11730491_at) / Fold change /veh LRRC4B (11730491_at) / RFU GIMAP4 (11747438_a_at) / Fold change /veh GIMAP4 (11747438_a_at) / RFU KRT8 (11758183_x_at) / Fold change /veh KRT8 (11758183_x_at) / RFU CNN1 (11734310_a_at) / Fold change /veh CNN1 (11734310_a_at) / RFU VPS37D (11726825_at) / Fold change /veh VPS37D (11726825_at) / RFU C10orf10 (11716522_x_at) / Fold change /veh C10orf10 (11716522_x_at) / RFU KIR2DL2 /// KIR2DL4 /// KIR2DL5A /// KIR2DL5B /// KIR2DS1 /// KIR2DS2 /// KIR2DS3 /// KIR2DS4 /// KIR3DL3 /// KIR3DL3 /// KIR3DS1 (11738374_at) / Fold change /veh KIR2DL2 /// KIR2DL4 /// KIR2DL5A /// KIR2DL5B /// KIR2DS1 /// KIR2DS2 /// KIR2DS3 /// KIR2DS4 /// KIR3DL3 /// KIR3DL3 /// KIR3DS1 (11738374_at) / RFU C1QL1 (11718748_at) / Fold change /veh C1QL1 (11718748_at) / RFU TMPRSS4 (11747572_a_at) / Fold change /veh TMPRSS4 (11747572_a_at) / RFU HAMP (11756126_x_at) / Fold change /veh HAMP (11756126_x_at) / RFU RNFT2 (11725882_a_at) / Fold change /veh RNFT2 (11725882_a_at) / RFU NR4A2 (11747474_a_at) / Fold change /veh NR4A2 (11747474_a_at) / RFU ABCC12 (11746883_a_at) / Fold change /veh ABCC12 (11746883_a_at) / RFU TMEM136 (11760407_x_at) / Fold change /veh TMEM136 (11760407_x_at) / RFU CLDN22 /// WWC2 (11732394_at) / Fold change /veh CLDN22 /// WWC2 (11732394_at) / RFU HLA-DPB1 (11760878_x_at) / Fold change /veh HLA-DPB1 (11760878_x_at) / RFU SPINT1 (11716480_a_at) / Fold change /veh SPINT1 (11716480_a_at) / RFU GAP43 (11754022_s_at) / Fold change /veh GAP43 (11754022_s_at) / RFU A4GNT (11735810_at) / Fold change /veh A4GNT (11735810_at) / RFU PRB3 (11715151_x_at) / Fold change /veh PRB3 (11715151_x_at) / RFU TUBB4B (11761932_at) / Fold change /veh TUBB4B (11761932_at) / RFU CAPN14 (11732068_a_at) / Fold change /veh CAPN14 (11732068_a_at) / RFU TMCC2 (11721928_a_at) / Fold change /veh TMCC2 (11721928_a_at) / RFU IRGQ (11745062_a_at) / Fold change /veh IRGQ (11745062_a_at) / RFU FAM174B (11720279_a_at) / Fold change /veh FAM174B (11720279_a_at) / RFU TMPRSS4 (11748680_a_at) / Fold change /veh TMPRSS4 (11748680_a_at) / RFU FAM212B (11763350_a_at) / Fold change /veh FAM212B (11763350_a_at) / RFU PLEKHG5 (11743358_a_at) / Fold change /veh PLEKHG5 (11743358_a_at) / RFU ZSCAN30 (11745921_a_at) / Fold change /veh ZSCAN30 (11745921_a_at) / RFU CMKLR1 (11741424_a_at) / Fold change /veh CMKLR1 (11741424_a_at) / RFU LOC101060620 /// MAPK8IP1 (11723275_at) / Fold change /veh LOC101060620 /// MAPK8IP1 (11723275_at) / RFU SPTSSB (11747773_x_at) / Fold change /veh SPTSSB (11747773_x_at) / RFU PRSS12 (11739890_at) / Fold change /veh PRSS12 (11739890_at) / RFU BIN1 (11741810_x_at) / Fold change /veh BIN1 (11741810_x_at) / RFU WNT11 (11732464_a_at) / Fold change /veh WNT11 (11732464_a_at) / RFU C10orf10 (11716521_a_at) / Fold change /veh C10orf10 (11716521_a_at) / RFU C5orf56 (11738089_at) / Fold change /veh C5orf56 (11738089_at) / RFU CYB561 (11721691_x_at) / Fold change /veh CYB561 (11721691_x_at) / RFU ANKRD19P (11752326_a_at) / Fold change /veh ANKRD19P (11752326_a_at) / RFU OR2T12 /// OR2T33 /// OR2T8 (11738714_s_at) / Fold change /veh OR2T12 /// OR2T33 /// OR2T8 (11738714_s_at) / RFU VCAN (11748164_a_at) / Fold change /veh VCAN (11748164_a_at) / RFU JSRP1 (11732532_at) / Fold change /veh JSRP1 (11732532_at) / RFU KRTAP10-11 (11738290_x_at) / Fold change /veh KRTAP10-11 (11738290_x_at) / RFU MYO3A (11730013_a_at) / Fold change /veh MYO3A (11730013_a_at) / RFU EBF3 (11725865_a_at) / Fold change /veh EBF3 (11725865_a_at) / RFU CAMK2N1 (11719241_x_at) / Fold change /veh CAMK2N1 (11719241_x_at) / RFU C5orf56 (11738088_a_at) / Fold change /veh C5orf56 (11738088_a_at) / RFU OLFML3 (11715873_a_at) / Fold change /veh OLFML3 (11715873_a_at) / RFU LOC100653217 /// NTM (11731650_a_at) / Fold change /veh LOC100653217 /// NTM (11731650_a_at) / RFU MAPK11 (11762145_a_at) / Fold change /veh MAPK11 (11762145_a_at) / RFU FIZ1 (11724087_x_at) / Fold change /veh FIZ1 (11724087_x_at) / RFU OASL (11726364_x_at) / Fold change /veh OASL (11726364_x_at) / RFU SOX15 (11748057_x_at) / Fold change /veh SOX15 (11748057_x_at) / RFU CD79A (11719716_a_at) / Fold change /veh CD79A (11719716_a_at) / RFU HIST1H1D (11736915_at) / Fold change /veh HIST1H1D (11736915_at) / RFU CASKIN2 (11723855_a_at) / Fold change /veh CASKIN2 (11723855_a_at) / RFU LOC730098 (11760151_x_at) / Fold change /veh LOC730098 (11760151_x_at) / RFU OR4N2 (11742367_at) / Fold change /veh OR4N2 (11742367_at) / RFU PRRT2 (11749266_a_at) / Fold change /veh PRRT2 (11749266_a_at) / RFU SNX32 (11753110_a_at) / Fold change /veh SNX32 (11753110_a_at) / RFU CDHR5 (11726645_a_at) / Fold change /veh CDHR5 (11726645_a_at) / RFU RCAN1 (11760418_a_at) / Fold change /veh RCAN1 (11760418_a_at) / RFU FAM167A (11723789_a_at) / Fold change /veh FAM167A (11723789_a_at) / RFU FAM26E (11764081_at) / Fold change /veh FAM26E (11764081_at) / RFU ISYNA1 (11749810_s_at) / Fold change /veh ISYNA1 (11749810_s_at) / RFU ACY1 (11761880_at) / Fold change /veh ACY1 (11761880_at) / RFU 11764098_at / Fold change /veh 11764098_at / RFU SAMD14 (11745864_x_at) / Fold change /veh SAMD14 (11745864_x_at) / RFU NPB (11741838_a_at) / Fold change /veh NPB (11741838_a_at) / RFU TMPRSS6 (11731388_a_at) / Fold change /veh TMPRSS6 (11731388_a_at) / RFU KRTAP10-2 (11738614_at) / Fold change /veh KRTAP10-2 (11738614_at) / RFU ARHGAP8 /// PRR5-ARHGAP8 (11727945_x_at) / Fold change /veh ARHGAP8 /// PRR5-ARHGAP8 (11727945_x_at) / RFU KRTAP5-7 /// NADSYN1 (11734609_at) / Fold change /veh KRTAP5-7 /// NADSYN1 (11734609_at) / RFU RASL12 (11751679_a_at) / Fold change /veh RASL12 (11751679_a_at) / RFU CDKN2B (11736163_a_at) / Fold change /veh CDKN2B (11736163_a_at) / RFU PRF1 (11729649_at) / Fold change /veh PRF1 (11729649_at) / RFU, ZNF638 /// ZNF638-IT1 / Fold change vs veh, ZNF638 /// ZNF638-IT1 / RFU, PANK3 / Fold change vs veh, PANK3 / RFU, SH3YL1 / Fold change vs veh, SH3YL1 / RFU, ZEB2 / Fold change vs veh, ZEB2 / RFU, NRIP1 / Fold change vs veh, NRIP1 / RFU, PTTG1IP / Fold change vs veh, PTTG1IP / RFU, CAPN2 / Fold change vs veh, CAPN2 / RFU, MED14 / Fold change vs veh, MED14 / RFU, SNORA58 / Fold change vs veh, SNORA58 / RFU, C1orf63 / Fold change vs veh, C1orf63 / RFU, LRRFIP1 / Fold change vs veh, LRRFIP1 / RFU, NDUFAF7 / Fold change vs veh, NDUFAF7 / RFU, SLC12A2 / Fold change vs veh, SLC12A2 / RFU, IBTK / Fold change vs veh, IBTK / RFU, ESF1 / Fold change vs veh, ESF1 / Fold change vs veh, TMEM50B / RFU, TAOK1 / Fold change vs veh, TAOK1 / RFU, ACBD3 / Fold change vs veh, ACBD3 / RFU, TMA16 / Fold change vs veh, TMA16 / RFU, RWDD3 / Fold change vs veh, RWDD3 / RFU, BCAT1 / Fold change vs veh, BCAT1 / RFU, EDEM3 / Fold change vs veh, EDEM3 / RFU, TMEM33 / Fold change vs veh, TMEM33 / RFU, WDR75 / Fold change vs veh, WDR75 / RFU, AHCTF1 / Fold change vs veh, AHCTF1 / RFU, TFRC / Fold change vs veh, TFRC / RFU, ZDHHC17 / Fold change vs veh, ZDHHC17 / RFU, NOM1 / Fold change vs veh, NOM1 / RFU, ARL8B / Fold change vs veh, ARL8B / RFU, ZBTB11 / Fold change vs veh, ZBTB11 / RFU, TAMM41 / Fold change vs veh, TAMM41 / RFU, KIAA1704 /// LOC100996395 / Fold change vs veh, KIAA1704 /// LOC100996395 / RFU, ING1 / Fold change vs veh, ING1 / RFU, TRMT61B / Fold change vs veh, TRMT61B / RFU, FUBP3 / Fold change vs veh, FUBP3 / RFU, TP53 / Fold change vs veh, TP53 / RFU, TNKS2 / Fold change vs veh, TNKS2 / RFU, ZFP14 / Fold change vs veh, ZFP14 / RFU, ACTR2 / Fold change vs veh, ACTR2 / RFU, PPP3R1 / Fold change vs veh, PPP3R1 / RFU, PIK3R1 / Fold change vs veh, PIK3R1 / RFU, HNRNPA1 / Fold change vs veh, HNRNPA1 / RFU, RNF170 / Fold change vs veh, RNF170 / RFU, ZNF28 / Fold change vs veh, ZNF28 / RFU, RNGTT / Fold change vs veh, RNGTT / RFU, OGT / Fold change vs veh, OGT / RFU, BRD1 / Fold change vs veh, BRD1 / RFU, MARS / Fold change vs veh, MARS / RFU, ZNF655 / Fold change vs veh, ZNF655 / RFU, FAHD1 / Fold change vs veh, FAHD1 / RFU, BDP1 / Fold change vs veh, BDP1 / RFU, LRRCC1 / Fold change vs veh, LRRCC1 / RFU, ARID1A / Fold change vs veh, ARID1A / RFU, ZNF146 / Fold change vs veh, ZNF146 / RFU, ZNF330 / Fold change vs veh, ZNF330 / RFU, GPN3 / Fold change vs veh, GPN3 / RFU, C9orf123 / Fold change vs veh, C9orf123 / RFU, N4BP2L2 / Fold change vs veh, N4BP2L2 / RFU, ARFIP1 / Fold change vs veh, ARFIP1 / RFU, FAM179B / Fold change vs veh, FAM179B / RFU, BCL10 / Fold change vs veh, BCL10 / RFU, UHRF1BP1L / Fold change vs veh, UHRF1BP1L / RFU, BET1 / Fold change vs veh, BET1 / RFU, CNOT2 / Fold change vs veh, CNOT2 / RFU, ZNF268 / Fold change vs veh, ZNF268 / Fold change vs veh, ZNF507 / RFU, DGCR2 / Fold change vs veh, DGCR2 / RFU, WDSUB1 / Fold change vs veh, WDSUB1 / Fold change vs veh, HSP90B1 /// MIR3652 / RFU, ADSS / Fold change vs veh, ADSS / RFU, GK / Fold change vs veh, GK / RFU, ZNF148 / Fold change vs veh, ZNF148 / RFU, TAF9 / Fold change vs veh, TAF9 / RFU, SLC1A5 / Fold change vs veh, SLC1A5 / RFU, SLMO2 / Fold change vs veh, SLMO2 / RFU, ABCC4 / Fold change vs veh, ABCC4 / RFU, LOC101060439 /// RAP1B / Fold change vs veh, LOC101060439 /// RAP1B / RFU, RFX7 / Fold change vs veh, RFX7 / RFU, GTPBP10 / Fold change vs veh, GTPBP10 / RFU, CNEP1R1 / Fold change vs veh, CNEP1R1 / RFU, BIVM-ERCC5 /// ERCC5 / Fold change vs veh, BIVM-ERCC5 /// ERCC5 / RFU, ILF3 / Fold change vs veh, ILF3 / RFU 11762660_at / Fold change /veh 11762660_at / RFU VCAN (11757783_s_at) / Fold change /veh VCAN (11757783_s_at) / RFU DDX43 (11728927_at) / Fold change /veh DDX43 (11728927_at) / RFU KRT8 (11758188_x_at) / Fold change /veh KRT8 (11758188_x_at) / RFU NKD1 (11759106_at) / Fold change /veh NKD1 (11759106_at) / RFU SRD5A1 (11742802_a_at) / Fold change /veh SRD5A1 (11742802_a_at) / RFU TPSAB1 /// TPSB2 (11721975_s_at) / Fold change /veh TPSAB1 /// TPSB2 (11721975_s_at) / RFU GSTM3 (11746129_a_at) / Fold change /veh GSTM3 (11746129_a_at) / RFU IL23R (11737362_x_at) / Fold change /veh IL23R (11737362_x_at) / RFU TMEM51 (11727254_a_at) / Fold change /veh TMEM51 (11727254_a_at) / RFU PIWIL2 (11732686_x_at) / Fold change /veh PIWIL2 (11732686_x_at) / RFU ORM1 (11744905_x_at) / Fold change /veh ORM1 (11744905_x_at) / RFU CCDC152 (11743942_at) / Fold change /veh CCDC152 (11743942_at) / RFU ECM1 (11717891_a_at) / Fold change /veh ECM1 (11717891_a_at) / RFU IL23R (11748794_a_at) / Fold change /veh IL23R (11748794_a_at) / RFU TNFAIP8L3 (11732012_x_at) / Fold change /veh TNFAIP8L3 (11732012_x_at) / RFU MBOAT4 (11741988_at) / Fold change /veh MBOAT4 (11741988_at) / RFU 11764193_at / Fold change /veh 11764193_at / RFU TMEM53 (11763286_at) / Fold change /veh TMEM53 (11763286_at) / RFU MAGEB2 (11727129_at) / Fold change /veh MAGEB2 (11727129_at) / RFU TMEM200A (11744735_a_at) / Fold change /veh TMEM200A (11744735_a_at) / RFU CCDC152 (11751479_a_at) / Fold change /veh CCDC152 (11751479_a_at) / RFU FAM211A (11726209_a_at) / Fold change /veh FAM211A (11726209_a_at) / RFU RGS16 (11746705_a_at) / Fold change /veh RGS16 (11746705_a_at) / RFU VCAN (11755009_s_at) / Fold change /veh VCAN (11755009_s_at) / RFU RHOB (11743442_s_at) / Fold change /veh RHOB (11743442_s_at) / RFU RGS16 (11720943_a_at) / Fold change /veh RGS16 (11720943_a_at) / RFU RGS16 (11720944_at) / Fold change /veh RGS16 (11720944_at) / RFU, VPS4B / Fold change vs veh, VPS4B / RFU, CREB1 / Fold change vs veh, CREB1 / RFU, DNAJC13 / Fold change vs veh, DNAJC13 / RFU, GNAQ / Fold change vs veh, GNAQ / RFU, CDK5R1 / Fold change vs veh, CDK5R1 / RFU, ZRANB3 / Fold change vs veh, ZRANB3 / RFU, CUL4A / Fold change vs veh, CUL4A / RFU, CCNY / Fold change vs veh, CCNY / RFU, UFL1 / Fold change vs veh, UFL1 / RFU, COG3 / Fold change vs veh, COG3 / RFU, DIAPH2 / Fold change vs veh, DIAPH2 / RFU, SKA2 / Fold change vs veh, SKA2 / RFU, AFF3 / Fold change vs veh, AFF3 / RFU, LMF1 / Fold change vs veh, LMF1 / RFU, IPO11 / Fold change vs veh, IPO11 / RFU, DFFB / Fold change vs veh, DFFB / RFU, FOXP1 / Fold change vs veh, FOXP1 / RFU, CARD8 / Fold change vs veh, CARD8 / RFU, STRN3 / Fold change vs veh, STRN3 / RFU, ADK / Fold change vs veh, ADK / RFU, RASSF2 / Fold change vs veh, RASSF2 / RFU, WIPF1 / Fold change vs veh, WIPF1 / RFU, LARP1B / Fold change vs veh, LARP1B / RFU, RASA1 / Fold change vs veh, RASA1 / RFU, RB1 / Fold change vs veh, RB1 / RFU, PPFIA1 / Fold change vs veh, PPFIA1 / RFU, MAT2A / Fold change vs veh, MAT2A / RFU, CCT5 / Fold change vs veh, CCT5 / RFU, WDR92 / Fold change vs veh, WDR92 / RFU, CUX1 / Fold change vs veh, CUX1 / RFU, TTC7A / Fold change vs veh, TTC7A / RFU, TMEM135 / Fold change vs veh, TMEM135 / RFU, DEPTOR / Fold change vs veh, DEPTOR / RFU, CPM / Fold change vs veh, CPM / RFU, DNAJB6 / Fold change vs veh, DNAJB6 / RFU, CACNA2D3 / Fold change vs veh, CACNA2D3 / RFU, DTX4 / Fold change vs veh, DTX4 / RFU, TFCP2 / Fold change vs veh, TFCP2 / RFU, GMCL1 /// GMCL1P1 / Fold change vs veh, GMCL1 /// GMCL1P1 / RFU, AEBP2 / Fold change vs veh, AEBP2 / RFU, SNHG1 /// SNORD22 /// SNORD25 /// SNORD26 /// SNORD27 /// SNORD28 /// SNORD29 /// SNORD31 / Fold change vs veh, SNHG1 /// SNORD22 /// SNORD25 /// SNORD26 /// SNORD27 /// SNORD28 /// SNORD29 /// SNORD31 / Fold change (Aza/veh), C12orf56 (ProbeSet 11735607_a_at) / Fold change (ACY-1035/veh), C12orf56 (ProbeSet 11735607_a_at) / Fold change (Aza/veh), FGFR1OP (ProbeSet 11751329_s_at) / Fold change (ACY-1035/veh), FGFR1OP (ProbeSet 11751329_s_at) / Fold change (Aza/veh), VPS36 (ProbeSet 11739960_a_at) / Fold change (ACY-1035/veh), VPS36 (ProbeSet 11739960_a_at) / RFU SYPL1 (11715823_x_at) / Fold change /veh SYPL1 (11715823_x_at) / RFU IGFBP7 (11715501_s_at) / Fold change /veh IGFBP7 (11715501_s_at) / RFU REEP3 (11722064_at) / Fold change /veh REEP3 (11722064_at) / RFU IGLL1 (11728026_x_at) / Fold change /veh IGLL1 (11728026_x_at): dose or concentration left out as unconfirmed
# Details: ProbeSet 11716931_at; LIST B
smiles,measurement,value
Nc1ccc(-c2cccs2)cc1NC(=O)c1ccc2c(c1)cc(C1CC1)n2CCN1CCOCC1 [ACY-1035],"RFU, DGCR2",215.86 RFU
